According to ChEMBL document CHEMBL3399953, “Structure-assisted ligand-binding analysis using fluorogenic photoaffinity labeling” (Bioorg Med Chem Lett, 2015):
The source made the active and inactive calls. The calls are words filed in the database; no cut-off is given here.

Assays:
[1] = target: Glutamate dehydrogenase 1, mitochondrial (Bos taurus) (UniProt P00366); experiment: Binding affinity to bovine glutamate dehydrogenase ATP binding site using assessed as photo labeling level at 80 uM by photo affinity labeling/reverse-phase HPLC of Lys-Cdigest assay in presence of ADP
[2] = target: Glutamate dehydrogenase 1, mitochondrial (Bos taurus) (UniProt P00366); experiment: Binding affinity to bovine glutamate dehydrogenase ATP binding site using assessed as decrease in photo labeling peak time at 80 uM by photo affinity labeling/reverse-phase HPLC of Lys-Cdigest assay in presence of 100 uM NADH/10 mM glutamate relative to NADH alone
[3] = target: Glutamate dehydrogenase 1, mitochondrial (Bos taurus) (UniProt P00366); experiment: Binding affinity to bovine glutamate dehydrogenase ATP binding site using assessed as fluorescence intensity at 80 uM by photo affinity labeling/reverse-phase HPLC of Lys-Cdigest assay in presence of ATP
[4] = target: Glutamate dehydrogenase 1, mitochondrial (Bos taurus) (UniProt P00366); experiment: Binding affinity to bovine glutamate dehydrogenase ATP binding site using assessed as photo labeling level at 80 uM by photo affinity labeling/reverse-phase HPLC of Lys-Cdigest assay in presence of NADH
[5] = target: Glutamate dehydrogenase 1, mitochondrial (Bos taurus) (UniProt P00366); experiment: Binding affinity to bovine glutamate dehydrogenase ATP binding site using assessed as coumarin-labeled pepdite retention time at 80 uM by photo affinity labeling/reverse-phase HPLC of Lys-Cdigest assay in presence of ATP
[6] = target: Glutamate dehydrogenase 1, mitochondrial (Bos taurus) (UniProt P00366); experiment: Binding affinity to bovine glutamate dehydrogenase ATP binding site using assessed as photo labeling level at 80 uM by photo affinity labeling/reverse-phase HPLC of Lys-Cdigest assay in presence of ATP
[7] = target: Glutamate dehydrogenase 1, mitochondrial (Bos taurus) (UniProt P00366); experiment: Binding affinity to bovine glutamate dehydrogenase ATP binding site using assessed as photo labeling peak time at 80 uM by photo affinity labeling/reverse-phase HPLC of Lys-Cdigest assay in presence of 100 uM NADH/10 mM glutamate

Glutamate dehydrogenase 1, mitochondrial (Bos taurus), sequence (P00366 whole entry): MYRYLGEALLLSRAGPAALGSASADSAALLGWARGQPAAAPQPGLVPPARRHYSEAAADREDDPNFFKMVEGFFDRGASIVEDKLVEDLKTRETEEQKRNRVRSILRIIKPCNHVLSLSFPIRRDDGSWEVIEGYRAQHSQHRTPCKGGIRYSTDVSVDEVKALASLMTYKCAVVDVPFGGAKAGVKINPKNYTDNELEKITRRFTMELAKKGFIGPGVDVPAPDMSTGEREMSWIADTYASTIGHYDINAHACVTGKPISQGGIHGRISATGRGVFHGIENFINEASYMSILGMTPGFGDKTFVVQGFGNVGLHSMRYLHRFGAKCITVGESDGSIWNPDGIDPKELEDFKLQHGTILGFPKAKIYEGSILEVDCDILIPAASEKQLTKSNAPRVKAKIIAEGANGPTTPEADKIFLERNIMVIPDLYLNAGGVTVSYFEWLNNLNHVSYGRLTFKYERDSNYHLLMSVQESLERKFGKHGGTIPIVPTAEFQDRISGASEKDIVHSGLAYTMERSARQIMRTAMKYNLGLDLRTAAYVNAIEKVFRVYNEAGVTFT

Row | Activity [1] | inhibition [2] [%] | Activity [3] | Activity [4] [%] | Retention time [5] [min] | Activity [6] [%] | Retention time [7] [min] | Structure (SMILES)
1 | 10% | 59 | Active | 89 | 21.1 | 55 | 21.1 | C/C(=C\c1ccc(C2(C(F)(F)F)N=N2)cc1O)C(=O)NCCNP(=O)(O)OP(=O)(O)OP(=O)(O)OC[C@H]1O[C@@H](n2cnc3c(N)ncnc32)[C@H](O)[C@@H]1O
2 | Active |  | Active |  |  |  |  | C/C(=C\c1ccc(C2(C(F)(F)F)N=N2)cc1O)C(=O)NCCNP(=O)(O)OP(=O)(O)OC[C@H]1O[C@@H](n2cnc3c(N)ncnc32)[C@H](O)[C@@H]1O
